Values after ≈ are worked out from the molar mass of the structure shown. “Also recorded” adds a separate entry of the source. Where two headings read alike, the source gives them in different places.
Experiments:
Candida albicans = assay: Anti-Candida albicans activity, experimental Candida albicans vaginitis in female rats; format: in vivo; settings: per tablet: lucknomycin 5 mg., clotrimazole 20 mg., nystatin 4 mg.
Text: The test is made in female rats on experimental Candida albicans vaginitis.

Candida albicans 11651 = assay: MIC, complete inhibition of growth, Candida albicans 11651; format: cell-based
Procedure: (§1) Lucknomycin is introduced at different dilutions into a peptonedextrose medium inoculated with the organism which is to be tested. After incubation for from 2 to 5 days at 28° C., the number of microgrammes of antibiotic per milliliter of medium is determined which must be used to obtain complete inhibition of growth (MIC) of the organism in question. In order to better point out the antifungal activity of Lucknomycin, it is compared with that of other known antifungal antibiotics.

Aspergillus niger = assay: MIC, complete inhibition of growth, Aspergillus niger; format: cell-based
Procedure: as §1

Trichomoras vaginalis = assay: MIC, complete inhibition of growth, Trichomonas vaginalis; format: cell-based
Procedure: as §1

[1] = test system: Trichophyton mentagrophytes; assay: MIC, complete inhibition of growth, Trichophyton mentagrophytes; format: cell-based; settings: for MIC: peptone-dextrose medium, 2 to 5 days at 28° C.
Procedure: as §1

Trichophyton acuminatum = assay: MIC, complete inhibition of growth, Trichophyton acuminatum; format: cell-based; settings: for MIC: peptone-dextrose medium, 2 to 5 days at 28° C.
Procedure: as §1

Candida krusei = assay: MIC, complete inhibition of growth, Candida krusei; format: cell-based
Procedure: as §1

Candida tropicalis = assay: MIC, complete inhibition of growth, Candida tropicalis; format: cell-based
Procedure: as §1

Escherichia coli = assay: Antibacterial spectrum, Escherichia coli; format: cell-based; settings: 10 mcg/ml, one day at 37° C.
Procedure: as §1
(§2) The experimental conditions are the same as for the determination of the fungal spectrum, except that the incubation time is one day at 37° C.

Klebsiella pneumoniae = assay: Antibacterial spectrum, Klebsiella pneumoniae; format: cell-based; settings: 10 mcg/ml, one day at 37° C.
Procedure: as §1, §2

[2] = test system: Lactobacillus acidophilus; assay: Antibacterial spectrum, Lactobacillus acidophilus; format: cell-based; settings: 10 mcg/ml, one day at 37° C.
Procedure: as §1, §2

Proteus mirabilis = assay: Antibacterial spectrum, Proteus mirabilis; format: cell-based; settings: 10 mcg/ml, one day at 37° C.
Procedure: as §1, §2

Pseudomonas aeruginosa = assay: Antibacterial spectrum, Pseudomonas aeruginosa; format: cell-based; settings: 10 mcg/ml, one day at 37° C.
Procedure: as §1, §2

Staphylococcus aureus = assay: Antibacterial spectrum, Staphylococcus aureus; format: cell-based; settings: 10 mcg/ml, one day at 37° C.
Procedure: as §1, §2

Streptococcus faecalis = assay: Antibacterial spectrum, Streptococcus faecalis; format: cell-based; settings: 10 mcg/ml, one day at 37° C.
Procedure: as §1, §2

Trichomonas vaginalis [3] = assay: Antiprotozoal activity, killing of a culture in full growth of Trichomonas vaginalis; format: cell-based; settings: 0.5 mcg./ml.; within about 30 minutes
Procedure: A concentration of 0.5 mcg./ml. of the antibiotic kills 50% of individuals of a culture in full growth of Trichomonas vaginalis within a period of about 30 minutes.

mice = assay: Toxicity, lethal dose LD50 in mice; format: in vivo
Text: Lethal dose LD50 in mice in mg./kg. body weight:

Trichomonas vaginalis [4] = assay: Anti-Trichomonas vaginalis activity, subcutaneous Trichomonas vaginalis abscess in mice; format: in vivo; settings: subcutaneous injections at the level of the abscess
Text: This test is made in mice on a subcutaneous Trichomonas vaginalis abscess. Subcutaneous injections at the level of the abscess of a suspension (or solution) of the following products at various concentrations are used to determine the ED50.

Solubility = format: physicochemical
[5] = Candida albicans 11651, peptone-dextrose medium, 2 to 5 days at 28° C.
[6] = peptone-dextrose medium, 2 to 5 days at 28° C.
[7] = peptone-dextrose medium, 2 to 5 days at 28° C., read-out: MIC

Question: Which “Number of cured rats/infested rats” value (Candida albicans; after 4 administrations) does the source give for `Clc1ccccc1C(c1ccccc1)(c1ccccc1)n1ccnc1` [clotrimazole] here?
Answer: 17/18

Question: What about the “Number of cured rats/infested rats” value (Candida albicans; after 8 administrations) of the same molecule?
Answer: 16/16

Question: And the “Number of cured rats/infested rats” value (Candida albicans; after 12 administrations)?
Answer: 17/17

Question: What does the source list for `C[C@@H]1[C@H](O)[C@@H](C)/C=C/C=C/C=C/C=C/C=C/C=C/C=C/[C@H](O[C@@H]2O[C@H](C)[C@@H](O)[C@H](N)[C@@H]2O)C[C@@H]2O[C@](O)(C[C@@H](O)C[C@@H](O)[C@H](O)CC[C@@H](O)C[C@@H](O)CC(=O)O[C@H]1C)C[C@H](O)[C@H]2C(=O)O` [Amphotericin B]?
Answer: MIC (Candida albicans 11651; Candida albicans, 11651): 1.25 µg/mL (≈ 1.35 µM); MIC (Aspergillus niger): 0.6 µg/mL (≈ 0.649 µM); MIC (Trichomoras vaginalis): > 10 µg/mL

Question: For `CNc1ccc(C(=O)CC(O)C2C/C=C/C=C/C=C/C=C/C=C/C=C/C=C/C(OC3OC(C)C(O)C(N)C3O)CC(O)C(C(=O)O)C(O)CC(O)CC(O)CC(O)CC(O)CC(O)CC(O)CC(O)CC(=O)O2)cc1` (centres unmarked) [Lucknomycin], which “activity against growth (in words)” value (Candida albicans 11651; Candida albicans) is on record?
Answer: effective

Question: And the MIC (Candida albicans 11651; [5])?
Answer: 0.1 to 0.2 µg/mL

Question: What about the “activity against growth (in words)” value (Aspergillus niger) of the same molecule?
Answer: effective

Question: What about the MIC (Aspergillus niger; [6]) of the same molecule?
Answer: 0.5 µg/mL (≈ 0.471 µM)

Question: And the “activity (in words)” value [1]?
Answer: moderately active

Question: What about the MIC [1] of the same molecule?
Answer: 25 µg/mL (≈ 23.6 µM)

Question: What about the “activity (in words)” value (Trichophyton acuminatum) of the same molecule?
Answer: moderately active

Question: And the MIC (Trichophyton acuminatum)?
Answer: 12.5 µg/mL (≈ 11.8 µM)

Question: And the “activity (in words)” value (Trichomoras vaginalis)?
Answer: effective

Question: And the MIC (Trichomoras vaginalis; [6])?
Answer: < 0.05 µg/mL

Question: And the “activity against growth (in words)” value (Candida krusei)?
Answer: effective

Question: And the MIC (Candida krusei; [6])?
Answer: 0.2 to 0.4 µg/mL

Question: What about the “activity against growth (in words)” value (Candida tropicalis) of the same molecule?
Answer: effective

Question: What about the MIC (Candida tropicalis; [6]) of the same molecule?
Answer: 0.1 to 0.2 µg/mL

Question: What about the inhibiting activity (Escherichia coli) of the same molecule?
Answer: inactive; also recorded: does not exert an inhibiting activity

Question: And the inhibiting activity (Klebsiella pneumoniae)?
Answer: inactive; also recorded: does not exert an inhibiting activity

Question: And the inhibiting activity [2]?
Answer: inactive; also recorded: does not exert an inhibiting activity

Question: And the inhibiting activity (Proteus mirabilis)?
Answer: inactive; also recorded: does not exert an inhibiting activity

Question: What about the inhibiting activity (Pseudomonas aeruginosa) of the same molecule?
Answer: inactive; also recorded: does not exert an inhibiting activity

Question: What about the inhibiting activity (Staphylococcus aureus) of the same molecule?
Answer: inactive; also recorded: does not exert an inhibiting activity

Question: And the inhibiting activity (Streptococcus faecalis)?
Answer: inactive; also recorded: does not exert an inhibiting activity

Question: And the “individuals of a culture in full growth killed” value (Trichomonas vaginalis [3])?
Answer: 50%

Question: And the LD50 (mice; intraperitoneal)?
Answer: 5-10 mg./kg. body weight

Question: What about the LD50 (mice; intravenous) of the same molecule?
Answer: 10-20 mg./kg. body weight

Question: What about the LD50 (mice; oral) of the same molecule?
Answer: > 800 mg./kg. body weight

Question: And the LD50 (mice; subcutaneous)?
Answer: > 800 mg./kg. body weight

Question: What about the “ED50 on Trichomonas vaginalis” value (Trichomonas vaginalis [4]) of the same molecule?
Answer: 12 µg/mL (≈ 11.3 µM)

Question: And the “Number of cured rats/infested rats” value (Candida albicans; after 4 administrations)?
Answer: 14/16

Question: And the “Number of cured rats/infested rats” value (Candida albicans; after 8 administrations)?
Answer: 13/13

Question: And the “Number of cured rats/infested rats” value (Candida albicans; after 12 administrations)?
Answer: 12/12

Question: And the Solubility (Solubility; in 60% methanol, concentrated ethanol (ethanol) and isopropanol)?
Answer: less soluble

Question: And the Solubility (Solubility; in benzene, acetone, water, chloroform, absolute ethanol, cyclohexane, ethyl acetate and diethyl ether)?
Answer: insoluble

Question: What about the Solubility (Solubility; in pyridine, dimethylformamide and dimethylacetamide) of the same molecule?
Answer: soluble

Question: For Candicidin, which “ED50 on Trichomonas vaginalis” value (Trichomonas vaginalis [4]) is on record?
Answer: 24 µg/mL

Question: What does the source list for `C[C@@H]1[C@H](O)[C@@H](C)/C=C/C=C/CC/C=C/C=C/C=C/C=C/C(O[C@H]2O[C@H](C)[C@@H](O)[C@H](N)[C@@H]2O)CC2O[C@](O)(CC(O)C(O)CCC(O)CC(O)CC(O)CC(=O)O[C@H]1C)CC(O)C2C(=O)O` (some centres unmarked) [Nystatin, nystatin]?
Answer: MIC (Candida albicans 11651; [5]): 2.5 µg/mL (≈ 2.7 µM); MIC (Aspergillus niger; [6]): 5 µg/mL (≈ 5.4 µM); MIC [1]: 25 µg/mL (≈ 27 µM); MIC (Trichophyton acuminatum): 25 µg/mL (≈ 27 µM); MIC (Trichomoras vaginalis; [6]): > 10 µg/mL; Number of cured rats/infested rats (Candida albicans; after 4 administrations): 5/11; Number of cured rats/infested rats (Candida albicans; after 8 administrations): 8/11; Number of cured rats/infested rats (Candida albicans; after 12 administrations): 9/11

Question: For Trichomycin, which “ED50 on Trichomonas vaginalis” value (Trichomonas vaginalis [4]) is on record?
Answer: 43 µg/mL

Question: For `Cc1ncc([N+](=O)[O-])n1CCO` [Metronidazole], which MIC (Trichomoras vaginalis; [7]) is on record?
Answer: 0.5 µg/mL (≈ 2.92 µM)

Question: For `C[C@@H]1C/C=C/C=C/C=C/C=C/[C@H](O[C@@H]2O[C@H](C)[C@@H](O)[C@H](N)[C@@H]2O)C[C@@H]2O[C@](O)(C[C@@H](O)C[C@H]3O[C@@H]3/C=C/C(=O)O1)C[C@H](O)[C@H]2C(=O)O` [Pimaricin], which MIC (Candida albicans 11651; Candida albicans 11651, peptone-dextrose medium, 2 to 5 days at 28° C., read-out: MIC) is on record?
Answer: 5 µg/mL (≈ 7.51 µM)

Question: What about the MIC (Aspergillus niger; [7]) of the same molecule?
Answer: 2.5 µg/mL (≈ 3.76 µM)

Question: And the MIC (Trichomoras vaginalis; [7])?
Answer: > 10 µg/mL

From patent publication US4056615A, “Lucknomycin and process for producing same” (U C B Societe Anonyme, priority 1975, dated 1977)
